# Molecular target: T1, Progesterone receptor (PR) (Homo sapiens, UniProt P06401)
# T1 construct: endogenous in cells; host or cells: T47D human breast mammary carcinoma cells
# T1 sequence (P06401 1-933): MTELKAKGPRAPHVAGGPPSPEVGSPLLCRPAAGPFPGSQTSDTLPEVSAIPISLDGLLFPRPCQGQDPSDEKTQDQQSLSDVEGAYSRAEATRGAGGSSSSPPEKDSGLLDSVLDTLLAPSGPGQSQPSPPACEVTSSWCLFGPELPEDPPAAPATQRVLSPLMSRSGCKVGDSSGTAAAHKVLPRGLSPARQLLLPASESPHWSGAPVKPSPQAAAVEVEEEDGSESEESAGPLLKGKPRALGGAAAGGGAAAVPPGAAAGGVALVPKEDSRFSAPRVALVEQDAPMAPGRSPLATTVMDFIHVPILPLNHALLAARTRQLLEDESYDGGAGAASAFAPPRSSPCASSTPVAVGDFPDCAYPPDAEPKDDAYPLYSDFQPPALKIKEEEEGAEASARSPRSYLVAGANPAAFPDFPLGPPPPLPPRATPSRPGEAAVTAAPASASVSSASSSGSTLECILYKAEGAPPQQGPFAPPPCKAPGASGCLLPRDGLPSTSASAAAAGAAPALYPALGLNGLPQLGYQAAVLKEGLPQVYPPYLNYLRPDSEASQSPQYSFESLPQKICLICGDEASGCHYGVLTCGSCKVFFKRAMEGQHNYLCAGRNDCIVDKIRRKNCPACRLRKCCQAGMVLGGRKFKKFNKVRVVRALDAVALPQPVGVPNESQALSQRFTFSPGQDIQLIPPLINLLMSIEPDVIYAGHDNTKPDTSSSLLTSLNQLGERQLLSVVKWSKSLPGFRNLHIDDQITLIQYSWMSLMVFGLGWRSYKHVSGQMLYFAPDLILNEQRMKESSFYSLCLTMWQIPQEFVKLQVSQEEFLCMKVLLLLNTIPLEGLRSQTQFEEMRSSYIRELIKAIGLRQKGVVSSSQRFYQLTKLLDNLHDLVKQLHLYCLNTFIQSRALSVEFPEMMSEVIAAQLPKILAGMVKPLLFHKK
# Experiment: In vitro functional assay for progesterone receptor (PR) antagonists: inhibition of progesterone-induced alkaline phosphatase expression in T47D cells
# Format: cell-based
# Details: antagonist format; T47D human mammary carcinoma cells; alkaline phosphatase inhibition vs 5 nM progesterone
# Excerpt: 1.0 In Vitro Functional Assay for Progesterone Receptor (PR) Antagonists, Agonists and Modulators
# The assay for PR antagonism takes advantage of the extensively reported modulation of alkaline phosphatase (AP) expression in human breast T47D mammary carcinoma cells {Beck, et al., D. P. (1993). The progesterone antagonist RU486 acquires agonist activity upon stimulation of cAMP signalling pathways. Proc Natl Acad Sci U S A 90, 4441-4445; Fensome, et al. (2002). New progesterone receptor antagonists: 3,3-disubstituted-5-aryloxindoles. Bioorg. Med. Chem. Lett., 12, 3487-3490; Zhang et al., (2002a). 6-Aryl-1,4-dihydro-benzo d 1,3 oxazin-2-ones: a novel class of potent, selective, and orally active nonsteroidal progesterone receptor antagonists. J. Med. Chem., 45, 4379-4382; Zhang et al., (2003). Novel 6-aryl-1,4-dihydrobenzo d oxazine-2-thiones as potent, selective, and orally active nonsteroidal progesterone receptor agonists. Bioorg. Med. Chem. Lett., 13, 1313-1316; Zhang et al., (2002b). Potent nonsteroidal progesterone receptor agonists: synthesis and SAR study of 6-aryl benzoxazines. Bioorg. Med. Chem. Lett., 12, 787-790; Zhang, Z. et al., (2000). In vitro characterization of trimegestone: a new potent and selective progestin. Steroids 65, 637-643.}. […] In the absence of progesterone any agonist activity is also observed as an induction of AP activity. By running the assay in two formats (± progesterone (P4)), compounds behaving as PR antagonists, agonists, partial agonists or modulators with mixed agonist/antagonist activity can be identified.
# Briefly, T47D cells are grown by propagating in DMEM with phenol red+10% FCS+2 mM Glutamine at 37° C./5% CO2. At 70-80% confluence, the media is exchanged for phenol red free DMEM+5% CS-FCS (Assay media). Cells are incubated overnight in assay media then harvested and frozen in assay media containing 10% DMSO at 1.5e7 cells/mL in 2 mL aliquots using a Planer and immediately stored in liquid nitrogen. V1als are removed from liquid nitrogen storage and immediately thawed in a water bath at 37° C. The cell suspension is added dropwise to 20 mL of assay media, then the tube centrifuged at 1000 rpm for 4 minutes, the supernatant is discarded and the pellet re-suspended in 20 mL assay media. T47D cells are then plated at 8750 cells/well in 35 μL assay media in sufficient white solid 384 well TC plates for the assay. For the agonist format assay a further 10 μL of assay media is added to each well. These plates are then cultured for 3-6 hours at 37° C./5% CO2 before compound addition.
# Compounds are prepared by in 100% DMSO, half log concentrations from 4 mM in 384 well plates 5 μL/well (referred to here as ‘grandmother plates’). Progesterone is 100 μM made up in ethanol and PBS (i.e. add 1 mL ethanol to progesterone initially to help dissolving) and stored in 0.5-1 mL aliquots at −20° C.
# Using a multidrop (Thermolabsystems), 60 μL/well of buffer is added to a 384 well plate—this will be the ‘mother plate’. Add 45 μLwell buffer to grandmother plate using the multidrop (=400 μM 10% DMSO dilution). Mixed and spun to remove air bubbles.
# 20 μL is taken from the grandmother plate (400 μM 10% DMSO) and added to the mother plate (=100 μM 2.5% DMSO). Mixed and spun to remove air bubbles
# The PlateMate Plus was used to add 5 μL MAX/MIN to cell plates
# Then 5 μL compounds are added from the mother plate(after removing max/min Platemate tips: columns 1 and 24)
# 25 nM progesterone in assay media is prepared from 100 μM stock (12.5 μL progesterone/50 mL media), from which 10 μL per well is transferred to the assay plate using the Platemate Plus (already containing cells & compound).
# The cell plates are incubated @ 37° C., 5% CO2 overnight (at least 16 hours). […]
row,SMILES,IC50 [nM]
1,"Cc1cc(Oc2c(C)nn(C3CS(=O)(=O)C3)c2C2CC2)cc(C)c1C#N [Example 11, 4-(3-Methyl-5-cyclopropyl-1-(1,1-dioxo-thietan-3-yl)-1H-pyrazol-4-yloxy)-2,6-dimethyl-benzonitrile]",50.4
2,"Cc1cc(Oc2c(C3CC3)nn(C3CS(=O)(=O)C3)c2Cl)cc(C)c1C#N [Example 20, 4-[5-Chloro-3-cyclopropyl-1-(1,1-dioxo-1λ^6-thietan-3-yl)-1H-pyrazol-4-yloxy]-2,6-dimethyl-benzonitrile]",22
3,"Cc1cc(Oc2c(C3CC3)nn(C3CCS(=O)(=O)C3)c2C2CC2)cc(C)c1C#N (single isomer, unassigned) [Example 8, 4-[3,5-Dicyclopropyl-1-(1,1-dioxo-tetrahydro-1λ^6-thiophen-3-yl)-1H-pyrazol-4-yloxy]-2,6-dimethyl-benzonitrile]",33.8
4,"Cc1cc(Oc2c(Cl)nn(C3CS(=O)(=O)C3)c2C2CC2)cc(C)c1C#N [Example 21, 4-[3-Chloro-5-cyclopropyl-1-(1,1-dioxo-1λ^6-thietan-3-yl)-1H-pyrazol-4-yloxy]-2,6-dimethyl-benzonitrile]",108
5,"Cc1cc(Oc2c(C3CC3)nn(C3CCS(=O)(=O)C3)c2C2CC2)cc(C)c1C#N (single isomer, unassigned) [Example 9, 4-[3,5-Dicyclopropyl-1-(1,1-dioxo-tetrahydro-1λ^6*-thiophen-3-yl)-1H-pyrazol-4-yloxy]-2,6-dimethyl-benzonitrile]",25.9
6,"Cc1cc(Oc2c(C3CC3)nn(C3CCS(=O)(=O)C3)c2C2CC2)cc(C)c1C#N (racemic) [Example 7, rac-4-[3,5-Dicyclopropyl-1-(1,1-dioxo-tetrahydro-1λ^6-thiophen-3-yl)-1H-pyrazol-4-yloxy]-2,6-dimethyl-benzonitrile]",13.8
7,"Cc1cc(Oc2c(C3CCC3)nn(C3CCS(=O)(=O)C3)c2C)cc(C)c1C#N (racemic) [Example 13, rac-4-[3-Cyclobutyl-1-(1,1-dioxo-tetrahydro-1λ^6-thiophen-3-yl)-5-methyl-1H-pyrazol-4-yloxy]-2,6-dimethyl-benzonitrile]",202
8,"Cc1cc(Oc2c(C3CC3)nn(C3CS(=O)(=O)C3)c2C)cc(C)c1C#N [Example 10, 4-(3-Cyclopropyl-5-methyl-1-(1,1-dioxo-thietan-3-yl)-1H-pyrazol-4-yloxy)-2,6-dimethyl-benzonitrile]",27.6
9,"Cc1cc(Oc2c(C3CC3)nn(C3COC3)c2C2CC2)cc(C)c1C#N [Example 1, 4-(3,5-Dicyclopropyl-1-oxetan-3-yl-1H-pyrazol-4-yloxy)-2,6-dimethyl-benzonitrile]",82.6
10,"Cc1cc(Oc2c(C3CC3)nn(C3CCOCC3)c2C2CC2)cc(C)c1C#N [Example 6, 4-[3,5-Dicyclopropyl-1-(tetrahydro-pyran-4-yl)-1H-pyrazol-4-yloxy]-2,6-dimethyl-benzonitrile]",56.3
11,"Cc1cc(Oc2c(C3CC3)nn(C3CCS(=O)(=O)CC3)c2C2CC2)cc(C)c1C#N [Example 5, 4-[3,5-Dicyclopropyl-1-(1,1-dioxo-hexahydro-1 λ^6-thiopyran-4-yl)-1H-pyrazol-4-yloxy]-2,6-dimethyl-benzonitrile]",91.3
12,"Cc1cc(Oc2c(C)nn(C3CCS(=O)(=O)C3)c2C2CC2)cc(C)c1C#N (racemic) [Example 14, rac-4-[5-Cyclopropyl-1-(1,1-dioxo-tetrahydro-1λ^6-thiophen-3-yl)-3-methyl-1H-pyrazol-4-yloxy]-2,6-dimethyl-benzonitrile]",133
13,"Cc1cc(Oc2c(C3CC3)nn(C3CCOC3)c2C2CC2)cc(C)c1C#N (stereo not drawn) [Example 3, 4-[3,5-Dicyclopropyl-1-(tetrahydro-furan-3-yl)-1 H-pyrazol-4-yloxy]-2,6-dimethyl-benzonitrile]",67.4
14,"Cc1cc(Oc2c(C3CC3)nn(C3CS(=O)(=O)C3)c2C2CC2)cc(C)c1C#N [Example 2, 4-[3,5-Dicyclopropyl-1-(1,1-dioxo-thietan-3-yl)-1H-pyrazol-4-yloxy]-2,6-dimethyl-benzonitrile]",14.7
15,"Cc1cc(Oc2c(C)nn(C3CCS(=O)(=O)C3)c2C2CCC2)cc(C)c1C#N (racemic) [Example 12, rac-4-[5-Cyclobutyl-1-(1,1-dioxo-tetrahydro-1λ^6-thiophen-3-yl)-3-methyl-1H-pyrazol-4-yloxy]-2,6-dimethyl-benzonitrile]",1490
